Experimental data as given in paper PMC12264794, “Homoleptic complexes of titanium(IV) fused with O^N^O Schiff base derivatives: design, BSA–DNA interaction, molecular docking, DFT and cytotoxicity” (RSC Advances, 2025).

What was measured:
BSA = target: T1, BSA (Bos taurus, UniProt P02769); assay: BSA site marker (ibuprofen, warfarin) fluorescence quenching; type: binding, bovine; conditions: 298 K; for Kb binding constant, BSA+Ibuprofen: site probe ibuprofen; for Kb binding constant, BSA + Warfarin: site probe warfarin
T1 construct: purchased Himedia Chemicals
Method: Fluorescence emission spectroscopy was used for site marker investigation, using an excitation wavelength of 280 nm. As they bind to the two most prevalent drug-binding sites, Sudlow sites I and II, two distinct site marker medications, warfarin (WAR) and ibuprofen (IBU), were utilized as particular site markers (probes) in this experiment. Separately, 10 mg of the site marker probes (WAR) and (IBU) were dissolved in PBS buffer. Subsequently, a known quantity of BSA was added to each probe stock solution to achieve a 5 mM concentration, and the mixture was maintained at 2 to 6 °C. The BSA + site marker binary solution was then titrated with different metal complex concentrations ranging from 0 to 80 μM, while maintaining constant binary solutions of BSA + IBU and BSA + WAR.[55,56]
In our experiment, fluorescence titration techniques were employed to determine the binding position of the BSA molecule. For the fluorescence titration, the excitation wavelength was […], and the emission was monitored between 300 and 500 nm where a fixed concentration of BSA (3 × 10^−6 M) and site markers (BSA + WAR) (BSA + IBU) were taken separately and titrated with the incremental addition of Ti-1-IS to Ti-6-IBr (0–100 μM). By comparing the Ksv values shown with and without site markers, the binding site of Ti(IV) complexes inside BSA was identified (ESI Table S3 ^†).
The Scatchard eqn (9) was used to examine the emission quenching data.

[1] = DPPH radical scavenging assay; type: biochemical; conditions: 40 minutes, absorbance at 517 nm
From the text: In the current study, 1,1-diphenyl 2-picrylhydrazyl (DPPH) radical scavenging screening determined the antioxidant properties of the synthesized Ti(IV) complexes. The spectrophotometric principle that led to the quenching of stable-colored radicals (DPPH) is the foundation of DPPH assays.[62] By detecting the drop in absorbance at 517 nm, which corresponds to the DPPH free radical, the scavenging activity of the produced complexes can be determined. The result of the reaction between the scavenger and colored free radical is 1,1-diphenyl-2-picrylhydrazine (DPPH-H), which lacks color. The newly synthesized Ti(IV) complexes were dissolved at a ratio of 1 mg mL^−1 in DMSO to create the stock solution. Similarly, methanol was used to prepare a stock solution of a 0.05 Mm DPPH solution. The Ti(IV) complexes were dissolved in DPPH stock solution to make (9.5 μM, 18.75 μM, 37.5 μM, 75 μM, 100 μM, and 300 μM) concentrations of the complexes and kept in a state of rest for 40 minutes under closed conditions. The absorbance of the Ti(IV) complexes was measured at 517 nm after 40 minutes for each solution loaded in 96-well plates using a Bio-Rad xMARK™ Microplate Spectrophotometer. For comparison, the absorbance of a control solution containing DPPH and methanol as blank, devoid of test samples, was also measured at the same level. Three sets of experiments were conducted for each concentration, using ascorbic acid as the standard reference. Using eqn (1), the proportion of DPPH free radical scavenging activity was calculated.[63]1 [drawing 1] where Ac and As are the absorbance of the control and the mixture. The necessary concentration of the Ti(IV) complexes to scavenge DPPH radicals was determined by employing linear regression to plot a curve between concentration and % inhibition.
In order to ascertain the antioxidant activity of the Ti(IV) complexes, a UV-vis spectrophotometric examination was performed using the 1,1-diphenyl-2-picrylhydrazyl (DPPH) method. Since DPPH is thought to be a dependable, stable, free radical, it reacts with methanol to form a […]. The ability of the complexes containing DPPH radicals to scavenge radicals was evaluated in the manner described. Several concentrations of the Ti(IV) complexes were investigated. Mixtures created by mixing DPPH with each component were subjected to spectrophotometric analysis at 517 nm to determine the absorbance. Antioxidant compounds usually transfer one electron to act as a reducing agent.

HeLa cells [2] = assay: Flow cytometry cell cycle analysis by PI staining; type: cell-based, human; conditions: 48 h, complexes at IC50, cis-platin 5 μM
Method: A flow cytometer was also used to do the apoptotic assessment. HeLa cells (5 × 10^5) were seeded onto 6-well plates using Dulbecco's Modified Eagle Medium paper (DMEM) with 10% FBS. The plates were incubated overnight at 37 °C with 95% air and 5% CO2. […] Following trypsinization, the cells were collected, cleaned with PBS, and fixed for 24 hours at 2–6 °C in ice-cold 70% ethanol. Centrifugation was used to remove the ethanol, and cold PBS was used twice to wash the cell pellets. Later the cells were stained with propidium iodide (PI, 1 mg mL^−1) and incubated for 30 min. Flow cytometric analysis was performed using a FACS scanner and the Becton Dickinson cell search program at 595 nm and the distribution of cells in various cell cycle phases was determined.[69,70]
Through cell cycle analysis, the mechanism of cancer cell death caused by the complexes was evaluated. Anticancer drugs promote growth-inhibitory action in cancer cells by a variety of mechanisms, one of which is dysfunction in the regulation of the cell cycle.[32] For example, cis-platin inhibits DNA transcription in cells by stopping the cell cycle in the S and G2/M phases. PI staining and flow cytometry were used to examine the ability of the complexes to modify the cell cycle (Fig. 19).

HeLa cells [3] = assay: AO–EB staining assay; type: cell-based, human; conditions: IC50 concentration, 48 hours
Method: A dual AO–EB staining fluorescent labelling technique was performed utilizing the Gohel et al. protocol, HeLa cells were seeded in 6-well plates at a density of 5 × 10^4. They were grown in a humidified CO2 incubator at 37 °C until they reached 70–80% confluency. […] The media were removed from each well, and the cells underwent two gentle room-temperature PBS rinses. Following that, the cells were combined with 100 μL of ethidium bromide and acridine orange dye and incubated separately for 15 minutes at 37 °C after staining separately, and the plates were observed and images were captured with an Olympus Confocal Laser Scanning Microscope—Fluoview Fv3000.[67,68]
The most important requirement in the creation of novel anticancer drugs is to determine the apoplastic induction caused by the drug concerned. AO–EB assay staining aids in the differentiation of necrotic, apoptotic, and living cells. By means of AO–EB staining, the morphological alterations caused by Ti-1-IS to Ti-6-IBr in HeLa cells were investigated. AO can penetrate intact cell membranes and dye them green; this distinction is caused in early apoptotic as well as normal cells. In contrast, EB can only enter cells that have lost their ability to form membranes, leaving an orange stain behind, identifying them as necrotic or late apoptotic cells.

T1 sequence (P02769 25-607): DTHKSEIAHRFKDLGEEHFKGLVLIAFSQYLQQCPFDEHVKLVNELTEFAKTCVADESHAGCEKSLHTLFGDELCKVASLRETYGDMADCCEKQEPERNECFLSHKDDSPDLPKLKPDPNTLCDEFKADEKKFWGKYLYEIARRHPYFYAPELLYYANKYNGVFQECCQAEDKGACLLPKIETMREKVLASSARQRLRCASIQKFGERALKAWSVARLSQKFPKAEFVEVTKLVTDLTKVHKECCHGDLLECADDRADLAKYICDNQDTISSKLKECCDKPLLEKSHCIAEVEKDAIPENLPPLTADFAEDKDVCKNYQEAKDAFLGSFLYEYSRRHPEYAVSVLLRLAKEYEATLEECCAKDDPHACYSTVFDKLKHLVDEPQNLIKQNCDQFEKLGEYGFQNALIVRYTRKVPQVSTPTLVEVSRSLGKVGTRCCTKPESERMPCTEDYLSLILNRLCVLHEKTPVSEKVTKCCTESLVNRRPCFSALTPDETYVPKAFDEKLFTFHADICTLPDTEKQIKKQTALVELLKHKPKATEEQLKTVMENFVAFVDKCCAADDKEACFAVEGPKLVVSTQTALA

Structure (SMILES)	Kb binding constant, BSA+Ibuprofen (BSA) [M⁻¹]	Kb binding constant, BSA + Warfarin (BSA) [M⁻¹]	IC50 [1] [µM]	G0/G1 phase (HeLa cells [2]) [%]	S Phase (HeLa cells [2]) [%]	Sub-G0 phase (HeLa cells [2]) [%]	Apoptosis induction by AO–EB staining (HeLa cells [3])
[O-]C(=NN=Cc1ccccc1[O-])c1ccncc1.[O-]C(=NN=Cc1ccccc1[O-])c1ccncc1.[Ti+4] [Ti-1-IS]	340	480	92.01 ± 0.1				
[O-]C(=NN=Cc1c([O-])ccc2ccccc12)c1ccncc1.[O-]C(=NN=Cc1c([O-])ccc2ccccc12)c1ccncc1.[Ti+4] [Ti-2-IN]	150	690	128.1 ± 0.3				
COc1cccc(C=NN=C([O-])c2ccncc2)c1[O-].COc1cccc(C=NN=C([O-])c2ccncc2)c1[O-].[Ti+4] [Ti-3-IO]	500	580	44.59 ± 0.4	18.32	19.41	28.48	apoptosis was triggered
[O-]C(=NN=Cc1cc(F)ccc1[O-])c1ccncc1.[O-]C(=NN=Cc1cc(F)ccc1[O-])c1ccncc1.[Ti+4] [Ti-4-IF]	370	400	82.61 ± 0.1				
[O-]C(=NN=Cc1cc(Cl)ccc1[O-])c1ccncc1.[O-]C(=NN=Cc1cc(Cl)ccc1[O-])c1ccncc1.[Ti+4] [Ti-5-ICl]	350	160	72.26 ± 0.7	7.45	16.10	14.72	apoptosis was triggered
Brc1ccc2c(c1)C=NN=C(c1ccncc1)[O][Ti]1([O]C(c3ccncc3)=NN=Cc3cc(Br)ccc3[O]1)[O]2 (centres unmarked) [Ti-6-IBr]	540	390	74.84 ± 0.2				
